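48-hour exposure; five concentrations; linearly interpolated endpoints. TGI denotes the concentration required for complete inhibition of growth.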
Assays:
Test in all cases: NCI-60 cell line screen, 48 h
HS 578T breast = test system: HS 578T breast
OVCAR-4 ovarian = test system: OVCAR-4 ovarian
OVCAR-3 ovarian = test system: OVCAR-3 ovarian
A498 renal = test system: A498 renal
U251 CNS = test system: U251 CNS
HL-60(TB) leukemia = test system: HL-60(TB) leukemia
A549 NSCLC = test system: A549 NSCLC
RPMI-8226 leukemia = test system: RPMI-8226 leukemia
CAKI-1 renal = test system: CAKI-1 renal
OVCAR-8 ovarian = test system: OVCAR-8 ovarian
SK-MEL-28 melanoma = test system: SK-MEL-28 melanoma
HOP-62 NSCLC = test system: HOP-62 NSCLC
NCI/ADR-RES ovarian = test system: NCI/ADR-RES ovarian
ACHN renal = test system: ACHN renal
K-562 leukemia = test system: K-562 leukemia
BT-549 breast = test system: BT-549 breast
TK-10 renal = test system: TK-10 renal
SK-OV-3 ovarian = test system: SK-OV-3 ovarian
RXF 393 renal = test system: RXF 393 renal
SNB-78 CNS = test system: SNB-78 CNS

SMILES	TGI (HS 578T breast) [µM]	TGI (OVCAR-4 ovarian) [µM]	TGI (OVCAR-3 ovarian) [µM]	TGI (A498 renal) [µM]	TGI (U251 CNS) [µM]	TGI (HL-60(TB) leukemia) [µM]	TGI (A549 NSCLC) [µM]	TGI (RPMI-8226 leukemia) [µM]	TGI (CAKI-1 renal) [µM]	TGI (OVCAR-8 ovarian) [µM]	TGI (SK-MEL-28 melanoma) [µM]	TGI (HOP-62 NSCLC) [µM]	TGI (NCI/ADR-RES ovarian) [µM]	TGI (ACHN renal) [µM]	TGI (K-562 leukemia) [µM]	TGI (BT-549 breast) [µM]	TGI (TK-10 renal) [µM]	TGI (SK-OV-3 ovarian) [µM]	TGI (RXF 393 renal) [µM]	TGI (SNB-78 CNS) [µM]
COc1cccc(/C=C\c2ccc(O)cc2)c1	75	> 100	> 82.7	69.8	> 57.5	2.92	> 80.9	> 100	> 84.1	56.2	> 100	> 100	31.7	> 89.2	> 50.4	58.4	> 100	> 100	> 78.8	–
CCOC(=O)C1(Br)S(=O)(=O)OCCOS1(=O)=O	–	> 100	> 100	> 100	> 100	> 100	> 100	> 100	–	> 100	> 100	> 100	–	> 100	> 100	–	> 100	> 100	> 100	> 100
C#CC1NC(=O)C1N(CC)CC (stereo not drawn)	> 100	> 100	> 100	> 100	> 100	> 100	–	> 100	> 100	> 100	> 100	> 100	> 100	> 100	> 100	> 100	> 100	> 100	> 100	–
COc1ccc(/C=C/C(=O)c2ccc(OC(=O)/C=C/c3ccccc3)cc2)cc1	> 100	92.8	> 100	> 73.4	> 100	33.7	> 100	24.7	> 69.2	> 83.2	> 100	> 100	> 100	> 100	> 100	> 58.3	> 100	> 100	> 100	–
Cc1ccc(N=C2C(c3ccccc3)=C(SC3=C(c4ccccc4)C(=Nc4ccc(C)cc4)c4ccccc43)c3ccccc32)cc1	22.9	17.2	> 100	33.5	> 53.5	17.8	> 100	> 100	65.6	24.7	> 100	22.9	> 100	18.3	> 100	> 62.8	> 100	35.4	27.9	–
COC(=O)C(/C(=N\NC(N)=S)C(=O)Nc1ccccc1[N+](=O)[O-])c1cnc2ccccc2n1 (stereo not drawn)	–	> 100	–	> 100	> 100	> 100	> 100	> 100	> 100	> 100	> 100	> 100	–	> 100	> 100	–	> 100	> 100	> 100	> 100
COc1ccc2nc(NC(=O)C(=O)NNC(=O)c3ccncc3)sc2c1	–	> 100	> 100	> 100	> 100	> 100	> 100	–	> 100	> 100	> 100	> 100	–	> 100	> 100	–	> 100	> 100	> 100	> 100
O=C1C(S(=O)(=O)c2ccccc2)=C(CS(=O)(=O)c2ccccc2)[C@@H](OCc2ccccc2)[C@@H]1OCc1ccccc1	67	57.8	27.5	57.3	53.3	43.9	> 100	36.1	> 100	39.8	35.9	53.2	54.4	> 100	35.8	27	> 100	> 100	27.8	–
COc1cccc(-c2c(-c3ccccc3)[nH]c(C)c2C(=O)ONC(=O)c2ccccc2)c1	24	> 24.5	22.8	28.5	11.4	4.37	9.59	29.3	11.3	19.1	30.4	10	26	10.9	10.4	18.7	22.1	29.8	17.1	–
CC1=NN(c2nc(N)nc(/C(C#N)=C\c3cccc([N+](=O)[O-])c3)n2)C(C)(C)C1	78.6	> 60.9	26.9	> 37	38.4	4.61	> 56.8	13.1	> 94.1	54	> 65	43.8	> 66.7	> 51.4	> 35.4	> 89.8	58.8	57.4	14.3	–
O=c1oc2ccc3ccccc3c2cc1-c1nc2ccc([N+](=O)[O-])cc2o1	> 100	> 100	> 100	> 88.4	> 100	> 100	> 79.1	> 100	> 91.4	> 100	> 100	> 45.2	> 100	> 24.2	> 100	> 95	> 78.6	> 100	19.1	–
Cc1cccc2c1c(=O)c1c(O)cc(O)cc1n2C	> 100	> 100	> 100	> 100	> 100	> 100	> 100	> 100	> 100	> 100	> 100	> 100	> 100	> 100	> 100	> 100	> 100	> 100	> 100	–
CN(CCCn1ccnc1[N+](=O)[O-])CCCn1ccnc1[N+](=O)[O-]	> 100	> 100	> 100	> 100	> 100	> 100	> 100	> 100	> 100	> 100	> 100	> 100	> 100	> 100	> 100	> 100	> 100	> 100	> 100	–
CC(C)[C@@H](C)[C@@]1(C)C[C@@H]1[C@@H](C)[C@H]1CC[C@@H]([C@@H]2CC=C3C[C@@H](O)CC[C@]3(C)C2=O)[C@]1(C)CCO	25.2	24.8	25.6	28.7	23	5.2	–	52	25.4	25.5	20.1	31.2	26.6	25	18	30.3	23.6	–	11.5	–
CCCC(=O)NC(Nc1ccc(S(=O)(=O)Nc2ccc(OC)nn2)cc1)(C(F)(F)F)C(F)(F)F	> 100	> 100	> 100	> 100	> 100	> 100	> 100	> 100	> 100	> 100	> 100	> 100	> 100	> 100	> 100	> 100	> 100	> 100	> 100	–
CN(C(=O)c1ccco1)C(=S)N1CCN(c2ccccn2)CC1	–	> 100	> 100	–	> 100	> 100	> 100	> 100	> 100	> 100	> 100	> 100	–	> 100	> 100	–	> 100	> 100	> 100	> 100
C/C(Cc1ccc2c(c1)OCO2)=N\NC(=O)C(C)Sc1nnc(SC(C)C(=O)N/N=C(\C)Cc2ccc3c(c2)OCO3)s1 (stereo not drawn)	> 100	> 100	> 100	> 100	> 100	> 100	> 100	> 100	> 100	> 100	> 100	> 100	> 100	> 100	> 100	> 100	> 100	> 100	> 100	–
COc1cc2ccc1OCc1cccc(n1)COc1ccc(cc1OC)C=NCCNCCN=C2	> 100	> 100	> 100	> 100	> 100	> 100	> 100	> 100	> 100	> 100	> 100	> 100	> 100	> 100	> 100	> 100	> 100	> 100	> 100	–
CCOC(=O)c1cccnc1C(OC(C)=O)OC(C)=O	–	> 100	> 100	> 100	> 100	> 100	> 100	–	> 100	> 100	> 100	> 100	–	> 100	> 100	–	> 100	> 100	> 100	> 100
CCCN(CCC)C1=Nc2ccccc2-n2cnnc2C1	–	> 100	> 100	–	> 100	> 100	> 100	> 100	–	> 100	> 100	> 100	–	> 100	> 100	–	> 100	–	> 100	> 100
C=C1Cc2cc(OC)c(OC)c(OC)c2-c2ccc(SC)c(=O)cc21	–	18.9	< 0.01	0.421	–	–	19.5	14.7	6.01	–	7.88	7.8	–	6.2	> 34.8	–	6.83	5.15	10.4	49.4
CCOC(=O)CNc1nnnn1C1OC(CO)C(O)C1O (stereo not drawn)	–	–	> 100	> 100	> 100	–	> 100	> 100	> 100	> 100	–	> 100	–	> 100	> 100	–	> 100	> 100	> 100	> 100
CC1(C)C2CCC(O)(C2)C1N (stereo not drawn)	> 100	> 100	> 100	> 100	> 100	> 31.6	> 100	> 100	> 100	> 100	> 100	> 100	> 100	> 100	> 100	> 100	> 100	> 100	> 100	–
COc1c2c(cc3c1C(=O)Cc1ccc4c(c1CN(C)CC3)OCO4)OCO2	–	> 100	> 100	–	> 100	> 100	> 100	> 100	> 100	> 100	> 100	> 100	–	> 100	> 100	–	> 100	> 100	> 100	> 100
O=C1CC2SC(COCc3ccccc3)(CCN2Cc2ccccc2)C1 (stereo not drawn)	> 100	> 100	> 100	> 100	> 100	43	> 100	93.4	> 100	> 100	> 100	> 100	> 100	> 100	> 100	> 100	76.3	> 100	> 100	–
C1CN2CCNCCN(CCN1)CC2	> 100	> 100	> 100	> 100	> 100	> 100	> 100	> 100	> 100	> 100	> 100	> 100	> 100	> 100	> 100	> 100	> 100	> 100	> 100	–

— PubChem BioAssay (NCI)
